# Results as given in patent US8846951B2 (AbbVie Inc., priority 2009, dated 2014).
# Where two headings read alike, the source gives them in different places.
# Experiments:
# Format in all cases: cell-based
# 5HT2C receptors [1] = target: T1, 5HT2C receptors (Homo sapiens, UniProt P28335); assay: Human 5-HT2C functional assay in 1321N1 cells (intracellular calcium, FLIPR); parameters: expressed in transfected cells; host or cells: 1321N1 cells; details: 5-HT2c agonist activity, maximum calcium response
# T1 sequence (P28335 33-458): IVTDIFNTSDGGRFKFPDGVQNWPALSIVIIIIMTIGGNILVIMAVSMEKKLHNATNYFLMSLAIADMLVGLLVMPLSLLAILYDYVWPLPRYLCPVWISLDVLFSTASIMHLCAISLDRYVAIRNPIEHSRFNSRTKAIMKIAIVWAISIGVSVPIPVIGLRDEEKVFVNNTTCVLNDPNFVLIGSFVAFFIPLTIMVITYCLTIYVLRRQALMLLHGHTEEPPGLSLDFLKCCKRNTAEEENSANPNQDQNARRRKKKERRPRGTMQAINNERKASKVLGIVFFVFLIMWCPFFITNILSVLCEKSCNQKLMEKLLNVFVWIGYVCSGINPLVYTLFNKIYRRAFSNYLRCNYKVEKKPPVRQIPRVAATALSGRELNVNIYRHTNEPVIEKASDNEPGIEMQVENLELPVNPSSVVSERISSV
# Experimental: (ii) Human 5-HT2C Functional Assay in 1321N1 Cells
# Functional activity was determined by testing the effect of the compounds on intracellular calcium levels in 1321N1 cells stably transfected with the human 5-HT2C receptor. Cells were seeded into 96-well plates at 50,000 cells/well and grown overnight in tissue culture medium (DMEM with Glutamax I (Invitrogen), containing 10% dFCS, 50 μg/mL Gentamicin, 400 μg/mL Geneticin) at 37° C. and 7% CO2. Growth medium was replaced by medium without dFCS for overnight incubation. Cells were loaded with a fluorescent calcium-sensitive dye in the presence of 1% probenicid according to the manufacturer's protocol (Fluo4 AM, Molecular Devices). Serial compound dilutions (final concentrations 10^−10 to 10^−5 M) were added to the cells either alone or in the presence of serotonin (10^−9 M) and the maximum calcium response was determined using a FLIPR instrument (Molecular Devices). Concentration-response curves were fitted using a four-parameter logistic equation (GraphPad Prism). The concentration at which the compound exerts half its maximal effect is named the ‘effective concentration 50’ or ‘EC50’ and is listed in Table 2.
# 5HT2B receptors = target: T2, 5HT2B receptors (Homo sapiens, UniProt P41595); assay: Human 5-HT2B functional high throughput screening assay in CHO-K1 cells (calcium flux); details: for Emax: 5-HT2B, maximum functional response as percentage relative to the effect of serotonin; for EC50: CHO-K1 cells, calcium flux
# T2 construct: expressed in transfected cells; host or cells: CHO-K1 cells
# T2 sequence (P41595 whole entry): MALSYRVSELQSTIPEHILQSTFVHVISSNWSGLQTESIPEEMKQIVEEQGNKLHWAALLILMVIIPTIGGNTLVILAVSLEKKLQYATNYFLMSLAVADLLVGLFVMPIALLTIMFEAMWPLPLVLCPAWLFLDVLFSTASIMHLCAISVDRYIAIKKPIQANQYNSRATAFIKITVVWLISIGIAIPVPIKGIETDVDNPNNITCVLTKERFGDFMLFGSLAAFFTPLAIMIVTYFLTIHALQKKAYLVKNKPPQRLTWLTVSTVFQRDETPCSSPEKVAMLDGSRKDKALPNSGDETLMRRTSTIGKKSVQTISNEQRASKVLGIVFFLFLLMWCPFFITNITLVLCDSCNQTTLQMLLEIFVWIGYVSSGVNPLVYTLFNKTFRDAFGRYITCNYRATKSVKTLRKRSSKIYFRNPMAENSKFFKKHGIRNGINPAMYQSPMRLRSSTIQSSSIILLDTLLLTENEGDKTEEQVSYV
# Summary of the method: (§1)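 CHO-K1 cells overexpressing human 5-HT2C or 5-HT2B were serum-starved overnight and loaded with Ca4 dye plus 2.5 mM probenecid for 60 min at RT. Calcium flux was read on FLIPR (ex 480/em 530 nm, 25° C) over 3 min after addition of compound, tested from 10 μM in 1:10 steps over 6 points with 0.2% DMSO. EC50 and Emax relative to serotonin came from a 4-parameter logistic fit.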
# 5HT2C receptors [2] = target: T1, 5HT2C receptors; assay: Human 5-HT2C functional high throughput screening assay in CHO-K1 cells (calcium flux); parameters: expressed in transfected cells; host or cells: CHO-K1 cells; details: for Emax: 5-HT2C, maximum functional response as percentage relative to the effect of serotonin; for EC50: CHO-K1 cells, calcium flux
# Summary of the method: as §1
# [3] = 5-HT2B agonist activity, read-out: EC50
# [4] = 5-HT2C agonist activity, read-out: EC50
EC50 (5HT2C receptors [1]) [nM],Emax (5HT2B receptors),EC50 (5HT2B receptors; [3]) [nM],EC50 (5HT2C receptors [2]; [4]) [nM],"Emax (5HT2C receptors [2]; CHO-K1, read-out: Emax) [%]",Compound,"EC50 (5HT2B receptors; EC50, 5-HT2B agonist activity) [nM]",Emax (5HT2C receptors [2]; CHO-K1) [%],"EC50 (5HT2C receptors [2]; EC50, 5-HT2C agonist activity) [nM]",Emax (5HT2C receptors [2]) [%]
101,,,,,"O=C1NC[C@@H]2CN(Cc3ccccc3)C[C@@H]2c2ccccc21 (relative stereo) [Example 3, Cis-2-benzyl-1,2,3,3a,4,5-hexahydrobenzo[c]pyrrolo[3,4-e]azepin-6(10bH)-one]",,,,
5.22,,,,,"Cc1cc(C)cc(CN2C[C@H]3CNC(=O)c4ccccc4[C@@H]3C2)c1 (relative stereo) [Example 22, Trans-2-(3,5-dimethylbenzyl)-1,2,3,3a,4,5-hexahydrobenzo[c]pyrrolo[3,4-e]azepin-6(10bH)-one]",,,,
,inactive,> 10000,2,120,"CC(=O)c1cccc(-c2ccc3c(c2)C(=O)NC[C@H]2CN(C)C[C@H]32)c1 [Example 278, (3aS,10bS)-8-(3-Acetylphenyl)-2-methyl-1,2,3,3a,4,5-hexahydrobenzo[e]pyrrolo[3,4-c]azepin-6(10bH)-one]",,,,
,inactive,,2,,"C[C@H](O)c1cccc(-c2ccc3c(c2)C(=O)NC[C@H]2CN(C)C[C@H]32)c1 [Example 293, (3aS,10bS)-8-{3-[(1S)-1-Hydroxyethyl]phenyl}-2-methyl-2,3,3a,4,5,10b-hexahydropyrrolo[3,4-d][2]benzazepin-6(1H)-one]",,,,
,inactive,> 10000,,,"C[C@@H](O)c1cccc(-c2ccc3c(c2)C(=O)NC[C@H]2CN(C)C[C@H]32)c1 [Example 294, (3aS,10bS)-8-{3-[(1R)-1-hydroxyethyl]phenyl}-2-methyl-2,3,3a,4,5,10b-hexahydropyrrolo[3,4-d][2]benzazepin-6(1H)-one]",,,,100
,inactive,> 10000,0.7,100,"CC(C)C(O)c1cccc(-c2ccc3c(c2)C(=O)NC[C@H]2CN(C)C[C@H]32)c1 (stereo partly drawn) [Example 304, (3aS,10bS)-8-[3-(1-Hydroxy-2-methylpropyl)phenyl]-2-methyl-2,3,3a,4,5,10b-hexahydropyrrolo[3,4-d][2]benzazepin-6(1H)-one]",,,,
,inactive,> 10000,10,90,"CN1C[C@@H]2CNC(=O)c3cc(-c4ccc5c(c4)C(=O)CC5)ccc3[C@H]2C1 [Example 306, (3aS,10bS)-2-Methyl-8-(3-oxo-2,3-dihydro-1H-inden-5-yl)-2,3,3a,4,5,10b-hexahydropyrrolo[3,4-d][2]benzazepin-6(1H)-one]",,,,
,inactive,> 10000,0.7,100,"CN1C[C@@H]2CNC(=O)c3cc(-c4ccc5c(c4)C(O)CC5)ccc3[C@H]2C1 (stereo partly drawn) [Example 310, (3aS,10bS)-8-(3-Hydroxy-2,3-dihydro-1H-inden-5-yl)-2-methyl-2,3,3a,4,5,10b-hexahydropyrrolo[3,4-d][2]benzazepin-6(1H)-one]",,,,
,inactive,> 10000,0.8,95,"CCC(O)c1cccc(-c2ccc3c(c2)C(=O)NC[C@H]2CN(C)C[C@H]32)c1 (stereo partly drawn) [Example 311, (3aS,10bS)-8-[3-(1-Hydroxypropyl)phenyl]-2-methyl-2,3,3a,4,5,10b-hexahydropyrrolo[3,4-d][2]benzazepin-6(1H)-one]",,,,
,inactive,> 10000,2,90,"CC(C)CC(O)c1cccc(-c2ccc3c(c2)C(=O)NC[C@H]2CN(C)C[C@H]32)c1 (stereo partly drawn) [Example 312, (3aS,10bS)-8-[3-(1-Hydroxy-3-methylbutyl)phenyl]-2-methyl-2,3,3a,4,5,10b-hexahydropyrrolo[3,4-d][2]benzazepin-6(1H)-one]",,,,
,inactive,> 10000,0.8,95,"CCCC(O)c1cccc(-c2ccc3c(c2)C(=O)NC[C@H]2CN(C)C[C@H]32)c1 (stereo partly drawn) [Example 313, (3aS,10bS)-8-[3-(1-Hydroxybutyl)phenyl]-2-methyl-2,3,3a,4,5,10b-hexahydropyrrolo[3,4-d][2]benzazepin-6(1H)-one]",,,,
,inactive,> 10000,6,90,"COc1ccc(-c2ccc3c(c2)C(=O)NC[C@H]2CN(C)C[C@H]32)cc1Cl [Example 319, (3aS,10bS)-8-(3-Chloro-4-methoxyphenyl)-2-methyl-2,3,3a,4,5,10b-hexahydropyrrolo[3,4-d][2]benzazepin-6(1H)-one]",,,,
,inactive,> 10000,2,90,"COc1ccc(-c2ccc3c(c2)C(=O)NC[C@H]2CN(C)C[C@H]32)c(F)c1 [Example 325, (3aS,10bS)-8-(2-Fluoro-4-methoxyphenyl)-2-methyl-2,3,3a,4,5,10b-hexahydropyrrolo[3,4-d][2]benzazepin-6(1H)-one]",,,,
,inactive,> 10000,9,85,"COc1cc(F)ccc1-c1ccc2c(c1)C(=O)NC[C@H]1CN(C)C[C@H]21 [Example 326, (3aS,10bS)-8-(4-Fluoro-2-methoxyphenyl)-2-methyl-2,3,3a,4,5,10b-hexahydropyrrolo[3,4-d][2]benzazepin-6(1H)-one]",,,,

Compound,EC50 (5HT2C receptors [1]) [nM],Emax (5HT2B receptors),EC50 (5HT2B receptors; [3]) [nM],EC50 (5HT2C receptors [2]; [4]) [nM],"Emax (5HT2C receptors [2]; CHO-K1, read-out: Emax) [%]","EC50 (5HT2B receptors; EC50, 5-HT2B agonist activity) [nM]",Emax (5HT2C receptors [2]; CHO-K1) [%],"EC50 (5HT2C receptors [2]; EC50, 5-HT2C agonist activity) [nM]",Emax (5HT2C receptors [2]) [%]
"O=C1NC[C@@H]2CNC[C@@H]2c2ccccc21 (relative stereo) [Example 4, Cis-1,2,3,3a,4,5-hexahydrobenzo[c]pyrrolo[3,4-e]azepin-6(10bH)-one]",202,,,,,,,,
"CN1C[C@@H]2CNC(=O)c3cc(OCC4CC4)ccc3[C@H]2C1 [Example 277, (3aS,10bS)-8-(Cyclopropylmethoxy)-2-methyl-1,2,3,3a,4,5-hexahydrobenzo[e]pyrrolo[3,4-c]azepin-6(10bH)-one]",,inactive,,,,> 10000,100,10,
"CC(C)COc1ccc2c(c1)C(=O)NC[C@H]1CNC[C@H]21 [Example 308, (3aR-10bS)-8-Isobutoxy-2,3,3a,4,5,10b-hexahydropyrrolo[3,4-d][2]benzazepin-6(1H)-one]",,inactive,,,,> 10000,95,3,
"CC(C)COc1ccc2c(c1)C(=O)NC[C@@H]1CNC[C@@H]21 [Example 309, (3aS,10bR)-8-Isobutoxy-2,3,3a,4,5,10b-hexahydropyrrolo[3,4-d][2]benzazepin-6(1H)-one]",,inactive,,,,> 10000,70,,
"COc1ccc(-c2ccc3c(c2)C(=O)NC[C@H]2CN(C)C[C@H]32)cn1 [Example 318, (3aS,10bS)-8-(6-Methoxypyridin-3-yl)-2-methyl-2,3,3a,4,5,10b-hexahydropyrrolo[3,4-d][2]benzazepin-6(1H)-one]",,inactive,,,,> 10000,90,10,
"CN1C[C@@H]2CNC(=O)c3cc(-c4ccccn4)ccc3[C@H]2C1 [Example 388, (3aS,10bS)-2-Methyl-8-(pyridin-2-yl)-2,3,3a,4,5,10b-hexahydropyrrolo[3,4-d][2]benzazepin-6(1H)-one]",,inactive,> 10000,300,,,90,,
"Trans-8-(2-methoxyphenethoxy)-2-methyl-1,2,3,3a,4,5-hexahydrobenzo[e]pyrrolo[3,4-c]azepin-6(10bH)-one [Example 183]",,inactive,> 10000,40,,,,,65
"Trans-8-(3-chloro-1H-pyrrol-2-yl)-2-methyl-2,3,3a,4,5,10b-hexahydropyrrolo[3,4-d][2]benzazepin-6(1H)-one and Trans-8-(5-chloro-1H-pyrrol-2-yl)-2-methyl-2,3,3a,4,5,10b-hexahydropyrrolo[3,4-d][2]benzazepin-6(1H)-one [Example 386]",,inactive,> 10000,20,,,,,65
